Data published in PMC4494927, “Discovery of a small molecule targeting SET-PP2A interaction to overcome BCR-ABLT315I mutation of chronic myeloid leukemia” (Oncotarget, 2015).

Assays:
Test in all cases: In vitro kinase assay (Kinase-Glo / ADP-Glo)
Type in all cases: biochemical
PI3Kα = PI3Kα (Homo sapiens, UniProt P42336); details: TGI1002 1 µM; means of two independent experiments; read-out: Inhibitory effect (%)
Experimental: (§1) All kinase reactions were carried out in 384-well plates. After addition of the compounds, kinase and ATP-substrate were added to the assay plates successively, the assay plates were centrifuged at 1,000 x g for 1 min and incubated for 1 h at 30 °C. Then, Kinase-Glo Plus or ADP-Glo reagent was added to each well. In Kinase-Glo assay, after addition of the reagent for 20 min, the luminescence was measured on an EnVision Multilabel Plate Reader (Perkin-Elmer). In ADP-Glo assay, after addition of the reagent for 40 min, Kinase Detection Reagent was added and incubated for another 30 min at 27 °C, and then the luminescence was measured. Kinase inhibition rates were calculated per manufacturer's instructions.

PDGFRα = PDGFRα (Homo sapiens, UniProt P16234)
PDGFRα, sequence (P16234 24-1089, species assumed): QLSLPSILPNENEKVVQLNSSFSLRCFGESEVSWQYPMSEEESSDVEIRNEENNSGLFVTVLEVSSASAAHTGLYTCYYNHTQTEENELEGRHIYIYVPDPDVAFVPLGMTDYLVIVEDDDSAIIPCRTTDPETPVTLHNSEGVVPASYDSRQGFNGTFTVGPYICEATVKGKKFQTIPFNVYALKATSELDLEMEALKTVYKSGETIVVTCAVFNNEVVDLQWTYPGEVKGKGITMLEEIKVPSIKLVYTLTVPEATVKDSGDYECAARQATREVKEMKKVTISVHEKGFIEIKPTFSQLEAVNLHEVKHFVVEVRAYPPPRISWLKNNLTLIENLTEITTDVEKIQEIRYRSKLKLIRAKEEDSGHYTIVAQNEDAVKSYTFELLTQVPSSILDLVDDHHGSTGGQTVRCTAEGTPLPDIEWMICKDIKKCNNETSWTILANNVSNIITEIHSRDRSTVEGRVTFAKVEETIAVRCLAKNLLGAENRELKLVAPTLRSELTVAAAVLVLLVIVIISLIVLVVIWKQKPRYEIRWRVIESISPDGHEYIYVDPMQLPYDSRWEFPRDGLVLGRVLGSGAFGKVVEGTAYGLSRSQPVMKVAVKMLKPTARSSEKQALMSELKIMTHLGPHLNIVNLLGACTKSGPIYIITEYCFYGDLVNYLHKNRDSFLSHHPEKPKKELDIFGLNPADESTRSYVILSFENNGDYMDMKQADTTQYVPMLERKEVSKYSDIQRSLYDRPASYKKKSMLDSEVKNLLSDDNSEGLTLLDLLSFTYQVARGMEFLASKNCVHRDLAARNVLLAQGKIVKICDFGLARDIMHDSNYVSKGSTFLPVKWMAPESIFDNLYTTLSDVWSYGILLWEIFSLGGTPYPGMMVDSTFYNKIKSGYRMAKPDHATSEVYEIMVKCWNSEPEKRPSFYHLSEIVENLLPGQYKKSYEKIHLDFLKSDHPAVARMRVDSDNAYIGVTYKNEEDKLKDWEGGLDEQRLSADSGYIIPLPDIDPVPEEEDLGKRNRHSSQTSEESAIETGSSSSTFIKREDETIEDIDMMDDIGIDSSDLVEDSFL
Experimental: as §1

CDK4/CyclinD1 = CDK4/CyclinD1 (Homo sapiens, UniProt P11802); details: TGI1002 1 µM; means of two independent experiments; read-out: Inhibitory effect (%)
Experimental: as §1

IGF1R = IGF1R (Homo sapiens, UniProt P08069); details: TGI1002 1 µM; means of two independent experiments; read-out: Inhibitory effect (%)
Experimental: as §1

PLK3 = PLK3 (Homo sapiens, UniProt Q9H4B4); details: TGI1002 1 µM; means of two independent experiments; read-out: Inhibitory effect (%)
PLK3, sequence (Q9H4B4 whole entry): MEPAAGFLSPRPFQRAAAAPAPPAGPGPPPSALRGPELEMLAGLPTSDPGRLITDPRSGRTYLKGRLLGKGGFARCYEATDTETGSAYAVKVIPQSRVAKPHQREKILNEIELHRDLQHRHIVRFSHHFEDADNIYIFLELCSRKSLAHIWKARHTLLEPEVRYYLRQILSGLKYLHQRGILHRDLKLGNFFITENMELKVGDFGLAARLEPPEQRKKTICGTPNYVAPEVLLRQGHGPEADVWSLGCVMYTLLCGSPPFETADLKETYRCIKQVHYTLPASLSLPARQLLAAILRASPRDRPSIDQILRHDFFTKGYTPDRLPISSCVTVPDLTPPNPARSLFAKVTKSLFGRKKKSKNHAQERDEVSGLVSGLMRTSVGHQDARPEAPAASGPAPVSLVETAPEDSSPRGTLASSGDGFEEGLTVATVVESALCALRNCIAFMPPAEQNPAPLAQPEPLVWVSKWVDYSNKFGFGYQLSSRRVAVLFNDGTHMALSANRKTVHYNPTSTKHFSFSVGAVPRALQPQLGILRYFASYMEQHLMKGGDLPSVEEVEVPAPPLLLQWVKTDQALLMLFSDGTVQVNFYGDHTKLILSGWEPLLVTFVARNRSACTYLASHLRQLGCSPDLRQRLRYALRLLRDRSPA
Experimental: as §1

BLK = BLK (Homo sapiens, UniProt P51451); details: TGI1002 1 µM; means of two independent experiments; read-out: Inhibitory effect (%)
Experimental: as §1

ALK = ALK (Homo sapiens, UniProt Q9UM73); details: TGI1002 1 µM; means of two independent experiments; read-out: Inhibitory effect (%)
Experimental: as §1

AMPK (A1/B1/G1) = AMPK (A1/B1/G1) (Homo sapiens, UniProt Q13131); details: TGI1002 1 µM; means of two independent experiments; read-out: Inhibitory effect (%)
Experimental: as §1

p38β = p38β (Homo sapiens, UniProt Q15759); details: TGI1002 1 µM; means of two independent experiments; read-out: Inhibitory effect (%)
Experimental: as §1

ABL1 = ABL1 (Homo sapiens, UniProt P00519); details: TGI1002 1 µM; means of two independent experiments; read-out: Inhibitory effect (%)
Experimental: as §1

Aurora A = Aurora A (Homo sapiens, UniProt O14965); details: TGI1002 1 µM; means of two independent experiments; read-out: Inhibitory effect (%)
Experimental: as §1

FLT3 = FLT3 (Homo sapiens, UniProt P36888); details: TGI1002 1 µM; means of two independent experiments; read-out: Inhibitory effect (%)
Experimental: as §1

PKAcβ = PKAcβ (Homo sapiens, UniProt P22694); details: TGI1002 1 µM; means of two independent experiments; read-out: Inhibitory effect (%)
Experimental: as §1

AKT1 = AKT1 (Homo sapiens, UniProt P31749); details: TGI1002 1 µM; means of two independent experiments; read-out: Inhibitory effect (%)
AKT1, sequence (P31749 whole entry): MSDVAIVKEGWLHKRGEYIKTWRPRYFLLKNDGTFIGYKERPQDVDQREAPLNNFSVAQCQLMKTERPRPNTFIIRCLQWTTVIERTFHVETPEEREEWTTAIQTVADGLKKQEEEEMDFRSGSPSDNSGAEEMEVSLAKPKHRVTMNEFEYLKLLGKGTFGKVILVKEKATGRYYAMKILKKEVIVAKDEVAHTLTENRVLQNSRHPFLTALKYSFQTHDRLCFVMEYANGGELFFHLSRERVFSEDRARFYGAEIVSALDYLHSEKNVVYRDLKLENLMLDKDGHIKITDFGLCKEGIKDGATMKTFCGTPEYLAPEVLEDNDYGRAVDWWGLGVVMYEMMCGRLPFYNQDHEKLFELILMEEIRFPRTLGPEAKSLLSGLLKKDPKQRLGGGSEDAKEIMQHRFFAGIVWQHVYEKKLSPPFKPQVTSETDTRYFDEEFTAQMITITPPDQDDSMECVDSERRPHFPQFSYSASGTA
Experimental: as §1

InsR = InsR (Homo sapiens, UniProt P06213); details: TGI1002 1 µM; means of two independent experiments; read-out: Inhibitory effect (%)
Experimental: as §1

EGFR(T790M,L858R) = EGFR(T790M,L858R) (Homo sapiens, UniProt P00533, L858R/T790M); details: TGI1002 1 µM; means of two independent experiments; read-out: Inhibitory effect (%)
Experimental: as §1

TrkB = TrkB (Homo sapiens, UniProt Q16620); details: TGI1002 1 µM; means of two independent experiments; read-out: Inhibitory effect (%)
Experimental: as §1

CDK2/CyclinA2 = CDK2/CyclinA2 (Homo sapiens, UniProt P24941); details: TGI1002 1 µM; means of two independent experiments; read-out: Inhibitory effect (%)
Experimental: as §1

PKAcr = PKAcr (Homo sapiens, UniProt P22612); details: TGI1002 1 µM; means of two independent experiments; read-out: Inhibitory effect (%)
Experimental: as §1

CHK1 = CHK1 (Homo sapiens, UniProt O14757); details: TGI1002 1 µM; means of two independent experiments; read-out: Inhibitory effect (%)
Experimental: as §1

CAMK1 = CAMK1 (Homo sapiens, UniProt Q14012); details: TGI1002 1 µM; means of two independent experiments; read-out: Inhibitory effect (%)
Experimental: as §1

FLT1(VEGFR1) = FLT1(VEGFR1) (Homo sapiens, UniProt P17948); details: TGI1002 1 µM; means of two independent experiments; read-out: Inhibitory effect (%)
Experimental: as §1

LCK = LCK (Homo sapiens, UniProt P06239); details: TGI1002 1 µM; means of two independent experiments; read-out: Inhibitory effect (%)
LCK, sequence (P06239 whole entry): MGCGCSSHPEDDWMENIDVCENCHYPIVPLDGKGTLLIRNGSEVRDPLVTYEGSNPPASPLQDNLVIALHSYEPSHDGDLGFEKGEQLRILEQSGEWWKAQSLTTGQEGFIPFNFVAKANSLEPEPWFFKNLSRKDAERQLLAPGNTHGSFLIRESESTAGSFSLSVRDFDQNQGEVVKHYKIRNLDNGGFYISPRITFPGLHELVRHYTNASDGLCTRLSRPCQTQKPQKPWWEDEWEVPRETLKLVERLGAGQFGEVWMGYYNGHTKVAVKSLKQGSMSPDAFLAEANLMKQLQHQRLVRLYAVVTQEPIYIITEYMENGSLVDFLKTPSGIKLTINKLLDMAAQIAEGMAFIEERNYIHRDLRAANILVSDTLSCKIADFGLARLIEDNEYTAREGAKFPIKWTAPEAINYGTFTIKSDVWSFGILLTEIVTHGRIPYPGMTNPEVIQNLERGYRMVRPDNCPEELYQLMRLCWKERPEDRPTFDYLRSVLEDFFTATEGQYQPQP
Experimental: as §1

AKT3 = AKT3 (Homo sapiens, UniProt Q9Y243); details: TGI1002 1 µM; means of two independent experiments; read-out: Inhibitory effect (%)
Experimental: as §1

NEK2 = NEK2 (Homo sapiens, UniProt P51955); details: TGI1002 1 µM; means of two independent experiments; read-out: Inhibitory effect (%)
Experimental: as §1

JNK1 = JNK1 (Homo sapiens, UniProt P45983); details: TGI1002 1 µM; means of two independent experiments; read-out: Inhibitory effect (%)
Experimental: as §1

PKCγ = PKCγ (Homo sapiens, UniProt P05129); details: TGI1002 1 µM; means of two independent experiments; read-out: Inhibitory effect (%)
Experimental: as §1

Aurora B = Aurora B (Homo sapiens, UniProt Q96GD4); details: TGI1002 1 µM; means of two independent experiments; read-out: Inhibitory effect (%)
Aurora B, sequence (Q96GD4 whole entry): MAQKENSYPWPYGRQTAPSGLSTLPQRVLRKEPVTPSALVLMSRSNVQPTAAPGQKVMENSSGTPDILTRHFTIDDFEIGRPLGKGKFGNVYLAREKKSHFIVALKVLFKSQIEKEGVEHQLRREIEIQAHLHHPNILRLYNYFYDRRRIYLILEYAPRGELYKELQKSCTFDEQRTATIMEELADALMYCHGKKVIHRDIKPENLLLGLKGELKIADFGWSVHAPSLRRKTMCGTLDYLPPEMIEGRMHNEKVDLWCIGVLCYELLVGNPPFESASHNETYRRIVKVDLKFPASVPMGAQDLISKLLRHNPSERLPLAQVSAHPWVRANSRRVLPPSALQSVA
Experimental: as §1

PI3Kδ = PI3Kδ (Homo sapiens, UniProt O00329); details: TGI1002 1 µM; means of two independent experiments; read-out: Inhibitory effect (%)
Experimental: as §1

RON = RON (Homo sapiens, UniProt Q04912); details: TGI1002 1 µM; means of two independent experiments; read-out: Inhibitory effect (%)
Experimental: as §1

PKAcα = PKAcα (Homo sapiens, UniProt P17612); details: TGI1002 1 µM; means of two independent experiments; read-out: Inhibitory effect (%)
Experimental: as §1

RAF1 = RAF1 (Homo sapiens, UniProt P04049); details: TGI1002 1 µM; means of two independent experiments; read-out: Inhibitory effect (%)
Experimental: as §1

BRAF(v599E) = BRAF(v599E) (Homo sapiens, UniProt P15056, V600E); details: TGI1002 1 µM; means of two independent experiments; read-out: Inhibitory effect (%)
Experimental: as §1

AXL = AXL (Homo sapiens, UniProt P30530); details: TGI1002 1 µM; means of two independent experiments; read-out: Inhibitory effect (%)
Experimental: as §1

PDGFRβ = PDGFRβ (Homo sapiens, UniProt P09619); details: TGI1002 1 µM; means of two independent experiments; read-out: Inhibitory effect (%)
Experimental: as §1

HER2 = HER2 (Homo sapiens, UniProt P04626); details: TGI1002 1 µM; means of two independent experiments; read-out: Inhibitory effect (%)
Experimental: as §1

AMPK (A2/B1/G1) = AMPK (A2/B1/G1) (Homo sapiens, UniProt P54646); details: TGI1002 1 µM; means of two independent experiments; read-out: Inhibitory effect (%)
Experimental: as §1

c-KIT = c-KIT (Homo sapiens, UniProt P10721); details: TGI1002 1 µM; means of two independent experiments; read-out: Inhibitory effect (%)
Experimental: as §1

p38α = p38α (Homo sapiens, UniProt Q16539); details: TGI1002 1 µM; means of two independent experiments; read-out: Inhibitory effect (%)
Experimental: as §1

KDR = KDR (Homo sapiens, UniProt P35968); details: TGI1002 1 µM; means of two independent experiments; read-out: Inhibitory effect (%)
Experimental: as §1

PI3Kα, sequence (P42336 whole entry): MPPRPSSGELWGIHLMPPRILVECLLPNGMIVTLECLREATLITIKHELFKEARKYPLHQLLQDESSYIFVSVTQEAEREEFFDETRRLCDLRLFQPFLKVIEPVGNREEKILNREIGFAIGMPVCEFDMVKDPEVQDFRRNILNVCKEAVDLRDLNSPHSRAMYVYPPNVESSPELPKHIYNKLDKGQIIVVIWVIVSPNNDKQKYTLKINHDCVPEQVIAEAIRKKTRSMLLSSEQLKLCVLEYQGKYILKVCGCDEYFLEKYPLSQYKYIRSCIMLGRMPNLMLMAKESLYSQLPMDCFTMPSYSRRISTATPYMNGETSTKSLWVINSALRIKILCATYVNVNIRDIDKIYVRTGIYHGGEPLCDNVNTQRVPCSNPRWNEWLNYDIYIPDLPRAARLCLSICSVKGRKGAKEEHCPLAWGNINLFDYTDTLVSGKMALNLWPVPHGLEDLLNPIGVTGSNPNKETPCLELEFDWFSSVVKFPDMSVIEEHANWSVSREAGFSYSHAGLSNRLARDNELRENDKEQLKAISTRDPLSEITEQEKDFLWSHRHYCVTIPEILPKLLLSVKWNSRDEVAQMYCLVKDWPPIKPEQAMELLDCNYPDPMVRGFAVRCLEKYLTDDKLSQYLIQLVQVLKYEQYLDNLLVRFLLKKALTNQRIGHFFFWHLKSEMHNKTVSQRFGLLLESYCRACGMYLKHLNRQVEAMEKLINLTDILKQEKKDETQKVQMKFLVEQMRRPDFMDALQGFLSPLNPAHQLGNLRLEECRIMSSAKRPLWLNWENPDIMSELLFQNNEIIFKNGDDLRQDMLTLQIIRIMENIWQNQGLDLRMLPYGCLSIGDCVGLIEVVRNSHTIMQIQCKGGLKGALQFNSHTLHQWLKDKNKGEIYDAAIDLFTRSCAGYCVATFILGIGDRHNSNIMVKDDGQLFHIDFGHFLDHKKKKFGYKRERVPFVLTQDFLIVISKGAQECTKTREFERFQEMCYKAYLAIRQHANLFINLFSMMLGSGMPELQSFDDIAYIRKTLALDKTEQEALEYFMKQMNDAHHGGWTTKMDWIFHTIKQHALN
PI3Kα, sequence (P27986 whole entry partner): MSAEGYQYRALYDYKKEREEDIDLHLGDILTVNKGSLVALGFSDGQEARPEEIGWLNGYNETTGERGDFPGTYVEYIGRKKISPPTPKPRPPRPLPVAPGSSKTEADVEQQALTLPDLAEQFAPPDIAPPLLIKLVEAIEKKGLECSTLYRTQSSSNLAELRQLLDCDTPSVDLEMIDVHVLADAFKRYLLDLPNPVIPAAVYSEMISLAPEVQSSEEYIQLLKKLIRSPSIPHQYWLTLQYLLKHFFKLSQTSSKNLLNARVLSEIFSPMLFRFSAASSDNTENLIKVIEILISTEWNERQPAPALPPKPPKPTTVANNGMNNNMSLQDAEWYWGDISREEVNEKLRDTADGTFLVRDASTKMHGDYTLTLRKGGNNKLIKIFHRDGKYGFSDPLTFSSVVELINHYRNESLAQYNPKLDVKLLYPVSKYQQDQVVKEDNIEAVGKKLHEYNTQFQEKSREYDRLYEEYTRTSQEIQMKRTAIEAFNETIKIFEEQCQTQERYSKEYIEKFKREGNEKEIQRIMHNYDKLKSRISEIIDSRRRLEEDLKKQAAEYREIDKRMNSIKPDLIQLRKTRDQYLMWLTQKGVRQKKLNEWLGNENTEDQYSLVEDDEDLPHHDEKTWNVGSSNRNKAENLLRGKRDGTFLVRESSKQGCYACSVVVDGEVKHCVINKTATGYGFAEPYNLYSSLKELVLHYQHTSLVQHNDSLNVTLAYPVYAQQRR

For `Cc1ccc(NC(=O)c2cccc(CN3CCN(C)CC3)c2)cc1Oc1nccc(-c2cccnc2)n1.Cl` [TGI1002, N-(4-methyl-3-((4-(pyridin-3-yl)-pyrimidin-2-yl)oxy)phenyl)-3-((4-methylpiperazin-1-yl)methyl)benzamide hydrochloride], the inhibition at 1 µM (PI3Kα) was 2.66%, the IC50 (PDGFRα; PDGFRα kinase activity) was 3.28 µM and the inhibition at 1 µM (PDGFRα; TGI1002 1 µM, means of two independent experiments, read-out: Inhibitory effect (%)) was 43.5%. For the same compound, the inhibition at 1 µM (CDK4/CyclinD1) was 7.54%, the inhibition at 1 µM (IGF1R) was 8.65% and the inhibition at 1 µM (PLK3) was 4.71%. For the same compound, the inhibition at 1 µM (BLK) was 3.39%, the inhibition at 1 µM (ALK) was 4.27% and the inhibition at 1 µM (AMPK (A1/B1/G1)) was 0.19%. For the same compound, the inhibition at 1 µM (p38β) was 0.2%, the inhibition at 1 µM (ABL1) was 4.3% and the inhibition at 1 µM (Aurora A) was 24.6%. The inhibition at 1 µM (FLT3) was 2.97%, the inhibition at 1 µM (PKAcβ) was 6.5% and the inhibition at 1 µM (AKT1) was 5.07%. It also gave an inhibition at 1 µM (InsR) of 3.7%, an inhibition at 1 µM (EGFR(T790M,L858R)) of 8.74% and an inhibition at 1 µM (TrkB) of 5.58%. It also gave an inhibition at 1 µM (CDK2/CyclinA2) of 1.54%, an inhibition at 1 µM (PKAcr) of 1.45% and an inhibition at 1 µM (CHK1) of 3.61%. It also gave an inhibition at 1 µM (CAMK1) of 4.93%, an inhibition at 1 µM (FLT1(VEGFR1)) of 1.97% and an inhibition at 1 µM (LCK) of 5.82%. The inhibition at 1 µM (AKT3) was 3.62%, the inhibition at 1 µM (NEK2) was 1.56% and the inhibition at 1 µM (JNK1) was 0.2%. It also gave an inhibition at 1 µM (PKCγ) of 0.79%, an inhibition at 1 µM (Aurora B) of 0% and an inhibition at 1 µM (PI3Kδ) of 0.71%. For the same compound, the inhibition at 1 µM (RON) was 0.14%, the inhibition at 1 µM (PKAcα) was 5.96% and the inhibition at 1 µM (RAF1) was 5.37%. It also gave an inhibition at 1 µM (BRAF(v599E)) of 3.61%, an inhibition at 1 µM (AXL) of 3.03% and an inhibition at 1 µM (PDGFRβ) of 17.2%. For the same compound, the inhibition at 1 µM (HER2) was 7.88%, the inhibition at 1 µM (AMPK (A2/B1/G1)) was 2.57% and the inhibition at 1 µM (c-KIT) was 15.2%. For the same compound, the inhibition at 1 µM (p38α) was 2.17% and the inhibition at 1 µM (KDR) was 0.64%.
